According to patent publication US10799495B2, “Aaptamine alkaloid derivatives and synthesis method and application thereof” (RENJI HOSPITAL, SHANGHAI JIAO TONG UNIVERSITY SCHOOL OF …, priority 2017, dated 2020):
Values after ≈ are worked out from the molar mass of the structure shown. Where two headings read alike, the source gives them in different places.

Columns and labels:
Assay type in all cases: cell-based
Trichophyton rubrum = assay: In vitro antifungal drug sensitivity test (microdilution method), Trichophyton rubrum; conditions: for MIC: read-out: Antifungal activity MIC
From the text: (§1) A microdilution method (Pierce C G, Uppuluri P, Tristan A R, et al. A simple and reproducible 96-well plate-based method for the formation of fungal biofilms and its application to antifungal susceptibility testing [J]. Nat Protoc, 2008, 3 (9): 1494-1500.) is adopted, and its experimental procedure refers to the M38-A2 and M27-A2 solutions (Espinel-Ingroff A, Fothergill A, Fuller J, et al. Wild-type MIC distributions and epidemiological cutoff values for caspofungin and Aspergillus Spp. for the CLSI broth microdilution method (M38-A2 document) [J]. Antimicrobl Agents Chemother, 2011, 55 (6): 2855-2859.). Three tested strains (Candida albicans, Trichophyton mentaqrophytes and Trichophyton rubrum) are used as indicator bacteria to carry out in vitro antifungal drug sensitivity screening experiment for the compounds AAP-1-AAP6.
(§2) Control drugs: ketoconazole (purchased from Shanghai Boliang Biotechnology Co., Ltd.), Aaptamine (same as Embodiment 2).

Candida albicans = assay: In vitro antifungal drug sensitivity test (microdilution method), Candida albicans; conditions: for MIC: read-out: Antifungal activity MIC
From the text: as §1, §2

[1] = system: human lung cancer stem cell PC9-Oct4; assay: In vitro anti-lung cancer stem cell test (CCK-8 cell viability), PC9-Oct4; conditions: read-out: Half effective inhibitory concentration IC50 against tumor cells
Method: (§3) In vitro anti-lung cancer stem cell test is carried out on the compounds AAP-1-6 of the present invention, and the lung cancer stem cell lines used are as follows:
(§4) Human lung cancer cell PC9 is purchased from ATCC with ATCC number 32727.
(§5) In addition, Oct4-GFP and Nanog-GFP are highly expressed by lentivirus transfection.
(§6) The original cell culture medium for Human lung cancer stem cells PC9-Nanog and PC9-Oct4 is discarded, 3 mL of PBS is added to rinse the cells twice; 500 μL of 0.25% trypsin is then added for digestion for 3 minutes at 37° C.; and 3 mL of a complete medium is added to terminate the digestion. The cells are pipetted gently with a pipette to make a single cell suspension; the single cell suspension is transferred to a 15 mL centrifuge tube and centrifuged at 800 rpm for 4 minutes; the supernatant is discarded, 6 mL of a complete medium is added to the centrifuge tube, and mixed by pipetting; counting is carried out to prepare […] single cell suspension; the suspension is added to a 96-well plate, 90 μL per well, (wells at the outer ring are not added with the suspension), and finally each well has 3000 cells; and the 96-well plate is incubated for 24 hours in a 37° C., 5% CO2 incubator.
(§7) 1 mg of each of the compounds AAP-1, AAP-2, AAP-3, AAP-4, AAP-5, and AAP-6 of the present invention is prepared into a 10 mM stock solution by using DMSO, and stored in a refrigerator with a temperature of 4° C. Thereafter, the stock solution is diluted with a medium to a 10 μM test solution. The final concentration is 10 μM in a 96-well plate, and the test solution is diluted three folds and added to the plate. Finally, the concentrations of the test solutions of the compounds of the present invention added to the plate are 10 μM, 3.3 μM, 1.1 μM, and 0.33 μM, respectively. The 96-well plate added with the compounds is incubated for 72 hours in a 37° C., 5% CO2 incubator. 72 hours later, 10 μL of CCK-8 solution is added to each well. 40 minutes to 60 minutes later, the absorbance at 450 nm, i.e., the OD value, is measured with a microplate reader. Cell viability is calculated after measuring the OD value of each group of cells. Cell viability (%)=(OD value of the treated group−OD value of the blank group)/(OD value of the blank control group−OD value of the blank group)×100%
(§8) The blank control group is not added with the compounds of the present invention, and the other steps are the same.
(§9) Meanwhile, the positive control drugs Cis-platinum (Shanghai Boliang Biotechnology Co., Ltd.) and Aaptamine (Reference: Enrique L. Larghi, Maria L. Bohn, Teodoro S. Kaufman, Aaptamine and related products. Their isolation, chemical syntheses, and biological activity, Tetrahedron 2009, 65 (22), 4257-4282 synthesis) are used as control groups for in vitro anti-tumor activity test, and the treatment method herein is the same as that for the compounds of the present invention.

[2] = system: human lung cancer stem cell PC9-Nanog; assay: In vitro anti-lung cancer stem cell test (CCK-8 cell viability), PC9-Nanog; conditions: read-out: Half effective inhibitory concentration IC50 against tumor cells
Method: as §3, §4, §5, §6, §7, §8, §9

[3] = system: Trichophyton mentaqrophytes; assay: In vitro antifungal drug sensitivity test (microdilution method), Trichophyton mentaqrophytes; conditions: for MIC: Trichophyton, read-out: Antifungal activity MIC
From the text: as §1, §2

[4] = Homo sapiens, 72 h, PC9-Oct4 cells, 72 hours incubation, CCK-8
[5] = Homo sapiens, 72 h, PC9-Nanog cells, 72 hours incubation, CCK-8
[6] = Trichophyton mentaqrophytes, microdilution
[7] = PC9-Oct4 cells, 72 hours incubation, CCK-8
[8] = PC9-Nanog cells, 72 hours incubation, CCK-8

MIC (Trichophyton rubrum; microdilution) [µg/mL] | MIC (Candida albicans; microdilution) [µg/mL] | IC50 [1, 4] [µM] | IC50 [2, 5] [µM] | MIC [3, 6] [µg/mL] | Structure (SMILES) | Antifungal activity MIC (Trichophyton rubrum; microdilution) [µg/mL] | IC50 [1, 7] [µM] | IC50 [2, 8] [µM] | also measured
12.5 (≈ 41.1 µM) | > 30 | 1.04 ± 0.11 | 1.24 ± 0.02 | 25 (≈ 82.1 µM) | COc1cc2ccnc3c2c(c1OC)NC=C3c1ccccc1 [AAP-1, 8,9-dimethoxy-3-phenyl-1H-benzo[de][1,6]naphthyridine] |  |  |  | 
25 (≈ 82.1 µM) | > 30 | 7.22 ± 0.04 | 6.82 ± 0.16 | 25 (≈ 82.1 µM) | COc1c(OC)c2c3c(nccc3c1-c1ccccc1)C=CN2 [AAP-2, 8,9-dimethoxy-7-phenyl-1H-benzo[de][1,6]naphthyridine] |  |  |  | 
 |  |  |  |  | COc1c(OC)c2c3c(nccc3c1-c1cccc(C(C)C)c1)C(c1cccc(C(C)C)c1)=CN2 [AAP-6, 3,7-bis(3-isopropyphenyl)-8,9dimethoxy-1H-benzo[de][1,6] naphthyridine] | >30 | 3.82 ± 0.15 | 4.82 ± 0.12 | Antifungal activity MIC (Candida albicans; microdilution): 25 µg/mL; Antifungal activity MIC [3, 6]: >30 µg/mL
 |  |  |  |  | COc1cc2ccnc3c2c(c1OC)NC=C3 [Aaptamine] | >30 |  |  | MIC (Trichophyton rubrum): > 30 µg/mL; MIC (Candida albicans): > 30 µg/mL; IC50 ([1]; Homo sapiens, 72 h): 8.44 ± 0.1 µM; IC50 ([2]; Homo sapiens, 72 h): 10.1 ± 0.17 µM; MIC [3]: > 30 µg/mL
 |  |  |  |  | N.N.[Cl][Pt][Cl] [Cis-platinum, reference compound] |  | 3.24 ± 0.05 | 4.53 ± 0.03 | 
8 (≈ 15.1 µM) | 8 (≈ 15.1 µM) |  |  | 8 (≈ 15.1 µM) | CC(=O)N1CCN(c2ccc(OCC3COC(Cn4ccnc4)(c4ccc(Cl)cc4Cl)O3)cc2)CC1 (centres unmarked) [Ketoconazole, ketoconazole, reference compound] |  |  |  | 
